Each compound was assayed on rabbit skeletal myofibrils (fast skeletal myofibrils) (assay: Activation of fast skeletal myofibrils (PUMA assay, AC1.4)). Conditions: calcium at pCa25, AC1.4 = concentration at which the compound increased the enzymatic activity.
Format: biochemical
In short: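 In 12 mM PIPES pH 6.8 with 2 mM MgCl2 and 1 mM DTT, Triton-washed rabbit skeletal myofibrils were run at the pCa25 calcium level. Myosin-made ADP was recycled through a PK/LDH coupled system; NADH loss read at 340 nm.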

SMILES | AC1.4 [µM]
CC[C@H](C)[C@H]1C(=O)Nc2ccccc2CN1C(=O)Nc1ccn(CCOC)n1 [Compound 299, (S)-3-((S)-sec-butyl)-N-(1-(2-methoxyethyl)-1H-pyrazol-3-yl)-2-oxo-1,2,3,5-tetrahydro-4H-benzo[e][1,4]diazepine-4-carboxamide] | 0.18
CC[C@H](C)[C@H]1C(=O)Nc2ccccc2CN1C(=O)N1CC(F)(F)C1 [Compound 300, (S)-3-((S)-sec-butyl)-4-(3,3-difluoroazetidine-1-carbonyl)-1,3,4,5-tetrahydro-2H-benzo[e][1,4]diazepin-2-one] | 0.42
CC[C@H](C)[C@H]1C(=O)Nc2ccccc2CN1C(=O)NC1CCN(CCO)CC1 [Compound 301, (S)-3-((S)-sec-butyl)-N-(1-(2-hydroxyethyl)piperidin-4-yl)-2-oxo-1,2,3,5-tetrahydro-4H-benzo[e][1,4]diazepine-4-carboxamide] | 0.36
CC[C@H](C)[C@H]1C(=O)Nc2ccccc2CN1C(=O)N1CCC[C@@H](CO)C1 [Compound 302, (S)-3-((S)-sec-butyl)-4-((R)-3-(hydroxymethyl)piperidine-1-carbonyl)-1,3,4,5-tetrahydro-2H-benzo[e][1,4]diazepin-2-one] | 0.82
CC[C@H](C)[C@H]1C(=O)Nc2ccccc2CN1C(=O)N1CCC[C@H](CO)C1 [Compound 303, (S)-3-((S)-sec-butyl)--4-((S)-3-(hydroxymethyl)piperidine-1-carbonyl)-1,3,4,5-tetrahydro-2H-benzo[e][1,4]diazepin-2-one] | 0.89
CC[C@H](C)[C@H]1C(=O)Nc2ccccc2CN1C(=O)N1CCCC(C(N)=O)C1 (stereo partly drawn) [Compound 304, 1-((S)-3-((S)-sec-butyl)-2-oxo-2,3,4,5-tetrahydro-1H-benzo[e][1,4]diazepine-4-carbonyl)piperidine-3-carboxamide] | 2.27
CC[C@H](C)[C@H]1C(=O)Nc2ccccc2CN1C(=O)N1CCCC(C(N)=O)C1 (stereo partly drawn) [Compound 305, 1-((S)-3-((S)-sec-butyl)-2-oxo-2,3,4,5-tetrahydro-1H-benzo[e][1,4]diazepine-4-carbonyl)piperidine-3-carboxamide] | 1.42
CC[C@H](C)[C@H]1C(=O)Nc2ccccc2CN1C(=O)N1CC(F)C1 [Compound 306, (S)-3-((S)-sec-butyl)-4-(3-fluoroazetidine-1-carbonyl)-1,3,4,5-tetrahydro-2H-benzo[e][1,4]diazepin-2-one] | 0.11
CC[C@H](C)[C@H]1C(=O)Nc2ccccc2CN1C(=O)N[C@@H]1CCNC1 [Compound 307, (S)-3-((S)-sec-butyl)-2-oxo-N-((R)-pyrrolidin-3-yl)-1,2,3,5-tetrahydro-4H-benzo[e][1,4]diazepine-4-carboxamide] | 0.52
CC[C@H](C)[C@H]1C(=O)Nc2ccccc2CN1C(=O)N[C@H]1CCNC1 [Compound 308, (S)-3-((S)-sec-butyl)-2-oxo-N-((S)-pyrrolidin-3-yl)-1,2,3,5-tetrahydro-4H-benzo[e][1,4]diazepine-4-carboxamide] | 0.32
COCCN1Cc2ccccc2NC(=O)[C@@H]1C1CCCCCC1 [Compound 309, (S)-3-cycloheptyl-4-(2-methoxyethyl)-1,3,4,5-tetrahydro-2H-benzo[e][1,4]diazepin-2-one] | 0.59
CC[C@H](C)[C@H]1C(=O)Nc2ccccc2CN1CCOC [Compound 310, (S)-3-((S)-sec-butyl)-4-(2-methoxyethyl)-1,3,4,5-tetrahydro-2H-benzo[e][1,4]diazepin-2-one] | 4.17
CC[C@H](C)[C@H]1C(=O)Nc2ccccc2CN1CC(=O)NC [Compound 311, 2-((S)-3-((S)-sec-butyl)-2-oxo-1,2,3,4-tetrahydro-4H-benzo[e][1,4]diazepin-4-yl)-N-methylacetamide] | 2.60
CC[C@H](C)[C@H]1C(=O)Nc2ccccc2CN1CCC(N)=O [Compound 312, 3-((S)-3-((S)-sec-butyl)-2-oxo-1,2,3,5-tetrahydro-4H-benzo[e][1,4]diazepin-4-yl)propanamide] | 1.22
CC[C@H](C)[C@H]1C(=O)Nc2ccccc2CN1CCC(=O)N(C)C [Compound 313, 3-((S)-3-((S)-sec-butyl)-2-oxo-1,2,3,5-tetrahydro-4H-benzo[e][1,4]diazepin-4-yl)-N,N-dimethylpropanamide] | 1.22
CC[C@H](C)[C@H]1C(=O)Nc2ccccc2CN1CCC(=O)NC [Compound 314, 3-((S)-3-((S)-sec-butyl)-2-oxo-1,2,3,5-tetrahydro-4H-benzo[e][1,4]diazepin-4-yl)-N-methylpropanamide] | 0.72
CC[C@H](C)[C@H]1C(=O)Nc2ccccc2CN1CC1CCCC1 [Compound 315, (S)-3-((S)-sec-butyl)-4-(cyclopentylmethyl)-1,3,4,5-tetrahydro-2H-benzo[e][1,4]diazepin-2-one] | 0.65
CC[C@H](C)[C@H]1C(=O)Nc2ccccc2CN1CC#N [Compound 316, 2-((S)-3-((S)-sec-butyl)-2-oxo-1,2,3,5-tetrahydro-4H-benzo[e][1,4]diazepin-4-yl)acetonitrile] | 1.07

SMILES | AC1.4 [µM]
CC[C@H](C)[C@H]1C(=O)Nc2ccccc2C(CO)N1C(N)=O (stereo partly drawn) [Compound 317, (3S)-3-((S)-sec-butyl)-5-(hydroxymethyl)-2-oxo-1,2,3,5-tetrahydro-4H-benzo[e][1,4]diazepine-4-carboxamide] | 1.30
CC[C@H](C)[C@H]1C(=O)Nc2ccccc2C2COC(=O)N21 (stereo partly drawn) [Compound 318, (5S)-5-((S)-sec-Butyl)-7,11b-dihydro-1H,3H-benzo[f]oxazolo[3,4-d][1,4]diazepine-3,6(5H)-dione] | 0.19
CC[C@H](C)[C@H]1C(=O)Nc2ccccc2[C@@H](C)N1C(=O)c1cnn(C)c1 [Compound 319, (3S,5R)-3-((S)-sec-butyl)-5-methyl-4-(1-methyl-1H-pyrazole-4-carbonyl)-1,3,4,5-tetrahydro-2H-benzo[e][1,4]diazepin-2-one] | 0.80
CC[C@H](C)[C@H]1C(=O)Nc2ccccc2[C@@H](C)N1C(N)=O [Compound 320, (3S,5R)-3-((S)-sec-butyl)-5-methyl-2-oxo-1,2,3,5-tetrahydro-4H-benzo[e][1,4]diazepine-4-carboxamide] | 1.25
CC(C)[C@H]1C(=O)Nc2ccccc2CN1C(=O)c1ccn(C)n1 [Compound 322, (S)-3-isopropyl-4-(1-methyl-1H-pyrazole-3-carbonyl)-1,3,4,5-tetrahydro-2H-benzo[e][1,4]diazepin-2-one] | 1.15
CC(C)[C@H]1C(=O)Nc2ccccc2CN1c1nccs1 [Compound 323, (S)-3-isopropyl-4-(thiazol-2-yl)-1,3,4,5-tetrahydro-2H-benzo[e][1,4]diazepin-2-one] | 0.66
Cc1nsc(N2Cc3ccccc3NC(=O)[C@@H]2C(C)C)n1 [Compound 324, (S)-3-isopropyl-4-(3-methyl-1,2,4-thiadiazol-5-yl)-1,3,4,5-tetrahydro-2H-benzo[e][1,4]diazepin-2-one] | 1.16
CC(C)[C@H]1C(=O)Nc2ccccc2CN1C(=O)N(C)C [Compound 325, (S)-3-isopropyl-N,N-dimethyl-2-oxo-1,2,3,5-tetrahydro-4H-benzo[e][1,4]diazepine-4-carboxamide] | 1.81
CC(=O)N1Cc2ccccc2NC(=O)[C@@H]1C(C)C [Compound 326, (S)-4-acetyl-3-isopropyl-1,3,4,5-tetrahydro-2H-benzo[e][1,4]diazepin-2-one] | 4.38
CC(C)[C@H]1C(=O)Nc2ccccc2CN1C(=O)c1cc[nH]c(=O)c1 [Compound 327, (S)-3-isopropyl-4-(2-oxo-1,2-dihydropyridine-4-carbonyl)-1,3,4,5-tetrahydro-2H-benzo[e][1,4]diazepin-2-one] | 1.50
CC(C)[C@H]1C(=O)Nc2ccccc2CN1C(=O)c1cnn(CCO)c1 [Compound 328, (S)-4-(1-(2-hydroxyethyl)-1H-pyrazole-4-carbonyl)-3-isopropyl-1,3,4,5-tetrahydro-2H-benzo[e][1,4]diazepin-2-one] | 2.56
CC(C)[C@H]1C(=O)Nc2ccccc2CN1C(=O)c1ccc(C(N)=O)[nH]1 [Compound 329, (S)-5-(3-isopropyl-2-oxo-2,3,4,5-tetrahydro-1H-benzo[e][1,4]diazepine-4-carbonyl)-1H-pyrrole-2-carboxamide] | 0.20
COCCn1cc(C(=O)N2Cc3ccccc3NC(=O)[C@@H]2C(C)C)cn1 [Compound 330, (S)-3-isopropyl-4-(1-(2-methoxyethyl)-1H-pyrazole-4-carbonyl)-1,3,4,5-tetrahydro-2H-benzo[e][1,4]diazepin-2-one] | 1.71
CC(C)[C@H]1C(=O)Nc2ccccc2CN1C(=O)c1cn[nH]c1 [Compound 331, (S)-3-isopropyl-4-(1H-pyrazole-4-carbonyl)-1,3,4,5-tetrahydro-2H-benzo[e][1,4]diazepin-2-one] | 1.03
CC(C)[C@H]1C(=O)Nc2ccccc2CN1C(=O)N1CC(O)C1 [Compound 332, (S)-4-(3-hydroxyazetidine-1-carbonyl)-3-isopropyl-1,3,4,5-tetrahydro-2H-benzo[e][1,4]diazepin-2-one] | 2.37
CC(C)[C@H]1C(=O)Nc2ccccc2CN1S(=O)(=O)N(C)C [Compound 333, (S)-3-isopropyl-N,N-dimethyl-2-oxo-1,2,3,5-tetrahydro-4H-benzo[e][1,4]diazepine-4-sulfonamide] | 2.44
CC(C)[C@H]1C(=O)Nc2ccccc2CN1c1c(N)c(=O)c1=O [Compound 334, (S)-3-amino-4-(3-isopropyl-2-oxo-1,2,3,5-tetrahydro-4H-benzo[e][1,4]diazepin-4-yl)cyclobut-3-ene-1,2-dione] | 0.65
CNC(=O)N1Cc2ccccc2NC(=O)[C@@H]1C(C)C [Compound 335, (S)-3-isopropyl-N-methyl-2-oxo-1,2,3,5-tetrahydro-4H-benzo[e][1,4]diazepine-4-carboxamide] | 3.75
